{"source": "paper PMC11305387", "about": "“AlphaFold accelerated discovery of psychotropic agonists targeting the trace amine–associated receptor 1” (Science Advances, 2024)", "key": {"TAAR1": {"system": "TAAR1", "settings": "ref Zilberg et al. ([51]); cited from earlier work"}, "hTAAR1": {"biological_target": "T1, hTAAR1 (Homo sapiens, UniProt Q96RJ0)", "T1 construct": "expressed in transfected cells; host or cells: Expi293F", "T1 sequence (Q96RJ0 1-339)": "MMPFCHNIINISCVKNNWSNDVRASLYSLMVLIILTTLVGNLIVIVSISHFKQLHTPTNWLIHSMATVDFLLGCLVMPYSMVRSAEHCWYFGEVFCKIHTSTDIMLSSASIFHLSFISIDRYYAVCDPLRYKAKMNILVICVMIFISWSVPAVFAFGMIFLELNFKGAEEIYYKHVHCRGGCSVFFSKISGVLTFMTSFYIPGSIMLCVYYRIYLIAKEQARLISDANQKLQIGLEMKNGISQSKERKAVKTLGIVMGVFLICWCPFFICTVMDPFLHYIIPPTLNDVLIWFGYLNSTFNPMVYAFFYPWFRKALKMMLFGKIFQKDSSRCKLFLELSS", "assay": "G protein (mini-Gs) recruitment luminescence complementation assay, agonist mode", "format": "cell-based", "procedure": "The 62 predicted ligands were purchased from commercial vendors and tested for activity at a concentration of 20 μM in a luminescence complementation–based assay measuring recruitment of mini-Gs to the human TAAR1 ([38]).\nTo monitor TAAR1 activation by compounds, we used our previously described system. […] Cells were then reseeded in solid white, 96-well plates (Corning) with 90 μl of cell suspension per well. Luminescence was read using a plate reader for 5 min (SPARK 10 M, Tecan) before the addition of compounds to ensure signal stability. Ten microliters of each compound diluted in DPBS was added, and luminescence from each well was read for 10 min, with 100-ms read time per well. The A2AR counter-screen was performed using the same protocol. In these experiments, the hTAAR1 was replaced by a C-terminally SmBiT-tagged hA2AR construct."}, "5-HT1D receptor": {"biological_target": "T2, 5-HT1D receptor (Homo sapiens, UniProt P28221)", "T2 construct": "TANGO fusion module (own knowledge, Kroeze et al.: C-terminal V2 tail, TEV site and tTA); 1000000068; host or cells: HTLA (HEK293-derived)", "T2 sequence (P28221 whole entry, the tested form may be a part)": "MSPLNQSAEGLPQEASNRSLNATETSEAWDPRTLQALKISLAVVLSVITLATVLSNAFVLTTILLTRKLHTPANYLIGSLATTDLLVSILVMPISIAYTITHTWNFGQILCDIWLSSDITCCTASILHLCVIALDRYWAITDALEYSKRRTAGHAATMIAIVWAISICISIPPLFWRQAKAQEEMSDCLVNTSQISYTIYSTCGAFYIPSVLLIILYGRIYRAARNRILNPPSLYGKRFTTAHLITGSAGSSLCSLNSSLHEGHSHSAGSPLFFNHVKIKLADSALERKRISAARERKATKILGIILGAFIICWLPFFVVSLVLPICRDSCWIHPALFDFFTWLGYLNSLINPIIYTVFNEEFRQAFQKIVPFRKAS", "assay": "PRESTO-TANGO β-arrestin recruitment", "format": "cell-based", "procedure": "(§1) Assessment of receptor activation by compounds at all human aminergic receptors were carried out using a modified version of the PRESTO-TANGO method. […] The plate was spun down, and 5 μl of a 1:25 dilution (in DPBS) of polyethylenimine (PEI) derivative (Transporter 5, Polysciences) was added (1:4 cDNA to PEI ratio) and incubated for 20 min at room temperature (RT). […] Luminescence signal was detected using a plate-reader (SPARK, Tecan) with 100-ms integration time and a 100-ms delay between well reads."}, "α2A receptor": {"biological_target": "T3, α2A receptor (Homo sapiens, UniProt P08913)", "T3 construct": "TANGO fusion module (own knowledge, Kroeze et al.: C-terminal V2 tail, TEV site and tTA); 1000000068; host or cells: HTLA (HEK293-derived)", "T3 sequence (P08913 1-465)": "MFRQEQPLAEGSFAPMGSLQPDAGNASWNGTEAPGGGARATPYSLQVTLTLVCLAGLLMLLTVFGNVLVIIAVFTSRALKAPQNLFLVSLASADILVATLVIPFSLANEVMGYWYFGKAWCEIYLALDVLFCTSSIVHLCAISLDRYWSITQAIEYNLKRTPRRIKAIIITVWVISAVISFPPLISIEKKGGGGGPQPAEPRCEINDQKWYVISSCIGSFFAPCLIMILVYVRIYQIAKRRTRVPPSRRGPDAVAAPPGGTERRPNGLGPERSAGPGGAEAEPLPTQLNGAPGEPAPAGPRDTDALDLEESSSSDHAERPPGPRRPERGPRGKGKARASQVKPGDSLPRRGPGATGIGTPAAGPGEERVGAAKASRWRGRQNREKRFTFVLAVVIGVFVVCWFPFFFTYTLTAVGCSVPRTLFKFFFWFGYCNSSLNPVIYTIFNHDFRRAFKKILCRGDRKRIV", "assay": "PRESTO-TANGO β-arrestin recruitment", "format": "cell-based", "settings": "panel screen"}, "D2 receptor": {"biological_target": "T4, D2 receptor (Homo sapiens, UniProt P14416)", "T4 construct": "TANGO fusion module (own knowledge, Kroeze et al.: C-terminal V2 tail, TEV site and tTA); 1000000068; host or cells: HTLA (HEK293-derived)", "T4 sequence (P14416 whole entry, the tested form may be a part)": "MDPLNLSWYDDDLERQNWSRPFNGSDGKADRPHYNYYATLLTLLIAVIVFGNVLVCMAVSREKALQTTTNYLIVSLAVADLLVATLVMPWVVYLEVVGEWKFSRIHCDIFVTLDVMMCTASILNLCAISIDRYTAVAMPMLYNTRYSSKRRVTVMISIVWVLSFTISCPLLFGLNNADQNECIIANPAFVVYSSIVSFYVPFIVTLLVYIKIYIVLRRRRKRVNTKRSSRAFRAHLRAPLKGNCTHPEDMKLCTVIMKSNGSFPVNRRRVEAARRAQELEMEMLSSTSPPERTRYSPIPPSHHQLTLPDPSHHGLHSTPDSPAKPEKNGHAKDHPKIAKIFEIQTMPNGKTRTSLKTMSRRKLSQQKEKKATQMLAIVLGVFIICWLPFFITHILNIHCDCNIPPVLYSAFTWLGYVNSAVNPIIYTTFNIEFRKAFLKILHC", "assay": "cell-based", "format": "cell-based", "procedure": "as §1"}, "5-HT1A receptor": {"biological_target": "T5, 5-HT1A receptor (Homo sapiens, UniProt P08908)", "T5 construct": "TANGO fusion module (own knowledge, Kroeze et al.: C-terminal V2 tail, TEV site and tTA); 1000000068; host or cells: HTLA (HEK293-derived)", "T5 sequence (P08908 1-422)": "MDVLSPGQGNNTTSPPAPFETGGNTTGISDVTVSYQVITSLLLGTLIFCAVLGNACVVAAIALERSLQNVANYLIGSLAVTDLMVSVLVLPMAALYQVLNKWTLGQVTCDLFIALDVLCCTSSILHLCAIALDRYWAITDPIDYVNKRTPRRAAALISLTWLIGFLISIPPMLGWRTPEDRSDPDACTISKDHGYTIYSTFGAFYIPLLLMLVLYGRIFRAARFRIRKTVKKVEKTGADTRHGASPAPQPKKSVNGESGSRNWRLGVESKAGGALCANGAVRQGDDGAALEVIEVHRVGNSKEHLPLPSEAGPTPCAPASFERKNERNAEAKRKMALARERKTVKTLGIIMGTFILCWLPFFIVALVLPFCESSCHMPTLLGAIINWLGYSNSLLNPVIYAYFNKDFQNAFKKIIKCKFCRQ", "assay": "PRESTO-TANGO β-arrestin recruitment", "format": "cell-based", "settings": "panel screen"}, "H1 receptor": {"biological_target": "T6, H1 receptor (Homo sapiens, UniProt P35367)", "T6 construct": "TANGO fusion module (own knowledge, Kroeze et al.: C-terminal V2 tail, TEV site and tTA); 1000000068; host or cells: HTLA (HEK293-derived)", "T6 sequence (P35367 whole entry, the tested form may be a part)": "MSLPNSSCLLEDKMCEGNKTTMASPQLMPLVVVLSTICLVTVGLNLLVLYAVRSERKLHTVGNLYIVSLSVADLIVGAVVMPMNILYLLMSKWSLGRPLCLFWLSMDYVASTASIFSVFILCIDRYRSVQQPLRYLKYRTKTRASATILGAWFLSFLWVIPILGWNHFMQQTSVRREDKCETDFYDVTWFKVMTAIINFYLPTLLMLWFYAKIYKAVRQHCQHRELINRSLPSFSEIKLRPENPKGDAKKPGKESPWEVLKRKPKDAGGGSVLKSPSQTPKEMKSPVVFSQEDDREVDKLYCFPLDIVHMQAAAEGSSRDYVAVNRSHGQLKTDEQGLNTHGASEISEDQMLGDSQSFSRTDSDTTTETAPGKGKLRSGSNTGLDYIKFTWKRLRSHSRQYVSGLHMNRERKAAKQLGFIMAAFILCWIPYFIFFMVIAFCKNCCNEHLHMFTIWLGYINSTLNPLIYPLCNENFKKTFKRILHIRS", "assay": "PRESTO-TANGO β-arrestin recruitment", "format": "cell-based", "settings": "panel screen, 10 μM; read-out: agonist activity, % of control"}, "M2 receptor": {"biological_target": "T7, M2 receptor (Homo sapiens, UniProt P08172)", "T7 construct": "TANGO fusion module (own knowledge, Kroeze et al.: C-terminal V2 tail, TEV site and tTA); 1000000068; host or cells: HTLA (HEK293-derived)", "T7 sequence (P08172 1-466)": "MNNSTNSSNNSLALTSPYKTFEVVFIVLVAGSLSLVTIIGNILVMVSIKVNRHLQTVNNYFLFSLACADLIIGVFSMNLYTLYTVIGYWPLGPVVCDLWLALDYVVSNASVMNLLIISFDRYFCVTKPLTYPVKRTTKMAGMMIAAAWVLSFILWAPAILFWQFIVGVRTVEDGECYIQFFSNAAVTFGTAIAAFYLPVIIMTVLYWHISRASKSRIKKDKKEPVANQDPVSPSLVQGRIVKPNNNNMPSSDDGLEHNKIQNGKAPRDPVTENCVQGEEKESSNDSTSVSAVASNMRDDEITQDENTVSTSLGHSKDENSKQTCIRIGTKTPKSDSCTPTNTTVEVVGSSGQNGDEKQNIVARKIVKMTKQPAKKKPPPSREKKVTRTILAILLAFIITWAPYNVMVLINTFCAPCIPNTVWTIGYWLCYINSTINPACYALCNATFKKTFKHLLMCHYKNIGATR", "assay": "PRESTO-TANGO β-arrestin recruitment", "format": "cell-based"}}, "data": [{"smiles": "CN1CC2c3ccccc3Oc3ccc(Cl)cc3C2C1", "note": "(stereo not drawn) [asenapine]", "values": [{"measurement": "TAAR1 agonism", "setting": "TAAR1", "result": "potent TAAR1 agonist"}]}, {"smiles": "C1=C(c2ccco2)CNCC1", "note": "[Compound 30]", "values": [{"measurement": "agonist type", "setting": "hTAAR1; TAAR1", "result": "full agonist"}, {"measurement": "EC50", "setting": "hTAAR1; TAAR1, G protein recruitment assay, read-out: pEC50 (converted)", "result": 0.0316, "unit": "µM"}, {"measurement": "fold more potent than Ulotaront", "setting": "hTAAR1; TAAR1 G protein recruitment", "result": "> 25", "unit": "fold"}, {"measurement": "fold more potent than the reference agonist β-PEA", "setting": "hTAAR1; TAAR1 G protein recruitment", "result": "~ 10 fold"}, {"measurement": "Emax", "setting": "hTAAR1; relative to the effect of the reference agonist β-PEA, read-out: Emax", "result": 112, "unit": "%"}, {"measurement": "EC50", "setting": "5-HT1D receptor", "result": "> 1", "unit": "µM"}, {"measurement": "Emax", "setting": "5-HT1D receptor", "result": 52, "unit": "%"}, {"measurement": "agonism at the 5-HT1D receptor", "setting": "5-HT1D receptor; panel screen", "result": "agonism"}, {"measurement": "agonism at the α2A receptor", "setting": "α2A receptor", "result": "agonism"}, {"measurement": "EC50", "setting": "D2 receptor; concentration-response curves", "result": "> 1", "unit": "µM"}, {"measurement": "Emax", "setting": "D2 receptor; concentration-response curves", "result": 54, "unit": "%"}, {"measurement": "agonism at the D2 receptor", "setting": "D2 receptor; panel screen", "result": "agonism"}, {"measurement": "activation of 5-HT1A receptor", "setting": "5-HT1A receptor", "result": "did not observe a considerable activation"}, {"measurement": "activity at 10 µM", "setting": "H1 receptor", "result": 70, "unit": "%"}, {"measurement": "EC50", "setting": "M2 receptor; concentration-response curves", "result": 10, "unit": "µM"}, {"measurement": "Emax", "setting": "M2 receptor; concentration-response curves", "result": 125, "unit": "%"}, {"measurement": "activity at 10 µM", "setting": "M2 receptor; panel screen, 10 μM, read-out: agonist activity, % of control", "result": 55, "unit": "%"}]}]}
